Assay results reported in patent US10946012B2, “Methods for inducing tumor regression, inhibiting tumor growth, and inducing apoptosis in breast tumors with geranylgeranyltransferase I inhibitors” (H. Lee Moffitt Cancer Center and Research Institute, Inc., priority 2009, dated 2021).

How the values were obtained:
[1] = system: p27 wild-type MEFs; experiment: Trypan Blue exclusion assay in p27 wild-type MEFs; type: cell-based, mouse; settings: 50 μM, 72 h, p27 wt MEFs
Experimental: (§1) Human MDA-MB-468 and MDA-MB-231 breast cancer cells and murine NIH 3T3 cells were obtained from the ATCC and cultured in DMEM medium. Human SK-Br3 and BT-474 breast cancer cells (ATCC) were cultured in McCoy's 5a medium and Hybri-Care medium, respectively. Mouse embryonic fibroblast (MEF) cells from p27 wild-type and p27 null mice were grown in DMEM. All media were supplemented with 10% fetal calf serum, 10 units/ml penicillin, and 10 μg/ml streptomycin. Subconfluent cells were treated with different concentrations of GGTI, FTI or DMSO vehicle for specific time periods. After treatment, cells were harvested by trypsinization.
Adherent cells were harvested by trypsinization and diluted with 0.4% Trypan Blue dye and counted on a hemacytometer. Cells excluding the dye were scored as live cells, whereas cells absorbing the dye were scored as dead cells. Cell proliferation was determined by dividing the number of live cells in the treated sample by the number of live cells in the control, and the degree of cell death was expressed as percentage of dead cells of the total cell number.

[2] = system: p27; experiment: Western blot / immunoprecipitation of p27 and prenylated proteins in MDA-MB-468 cells; type: cell-based, human; parameters: Rap1 geranylgeranylation / HDJ-2 farnesylation / processing / p27 protein levels: dose or concentration left out as unconfirmed
Experimental: MDA-MB-468 cells were lysed using CelLytic™ M Cell Lysis Reagent (Sigma-Aldrich, St. Louis, Mo.) containing protease inhibitor cocktail, 2 mM phenylmethylsulfonylfluoride (PMSF), 2 mM Na3VO4, and 6.4 mg/ml p-nitrophenylphosphate (Sigma-Aldrich). Lysates were incubated overnight with p27 antibody (BD Biosciences, San Jose, Calif.) at 4° C. while rocking; after incubation protein A anti-IgG agarose beads were added and incubated for 2 h at 4° C., then washed four times with an excess of lysis buffer. Samples were then boiled at 100° C. for 10 min in 2×SDS-sample buffer and analyzed by Western blotting as described below.
To prepare whole cell lysates, cells were trypsinized, washed with phosphate buffered saline (PBS) twice, and lysed in 30 mM Hepes, pH 7.5, 10 mM NaCl, 5 mM MgCl2, 25 mM NaF, 1 mM EGTA, 1% Triton-X-100, 10% glycerol, protease inhibitor cocktail, 2 mM PMSF, 2 mM Na3VO4, and 6.4 mg/ml p-nitrophenylphosphate. Lysates were cleared by centrifugation at 12,000×g for 15 min, and the supernatants were collected as whole cell extracts. The protein concentration was determined by the Bradford assay. Proteins were separated by SDS-PAGE and transferred to nitrocellulose membranes, which were then blotted with antibodies specific for whole Rap1 or unprenylated Rap1, Ras, the C-terminal region of pRb, Akt (Santa Cruz Biotechnology, Santa Cruz, Calif.), phospho-Akt(S473) (Cell Signaling, Danvers, Mass.), p27 (BD Biosciences, San Jose, Calif.), phospho-p27(T187) (Invitrogen, Carlsbad, Calif.), HDJ-2 (Lab Vision Corporation, Fremont, Calif.), phosphotyrosine (Millipore, Billerica, Mass.), and β-actin (Sigma-Aldrich, St. Louis, Mo.). Select bands were quantified using AlphaEaseFC densitometry software (AlphaInnotech, San Leandro, Calif.).

[3] = system: Rap1 geranylgeranylation; experiment: Rap1 geranylgeranylation in H-Ras transformed NIH 3T3 cells (Western blot); type: cell-based, murine; settings: H-Ras/3T3 cells
Experimental: as §1
To prepare whole cell lysates, cells were trypsinized, washed with phosphate buffered saline (PBS) twice, and lysed in 30 mM Hepes, pH 7.5, 10 mM NaCl, 5 mM MgCl2, 25 mM NaF, 1 mM EGTA, 1% Triton-X-100, 10% glycerol, protease inhibitor cocktail, 2 mM PMSF, 2 mM Na3VO4, and 6.4 mg/ml p-nitrophenylphosphate. Lysates were cleared by centrifugation at 12,000×g for 15 min, and the supernatants were collected as whole cell extracts. The protein concentration was determined by the Bradford assay. […] Select bands were quantified using AlphaEaseFC densitometry software (AlphaInnotech, San Leandro, Calif.). […]

[4] = system: p27; experiment: Immunofluorescence of p27 in MDA-MB-468 cells; type: cell-based, human; settings: 50 μM, 48 h
Experimental: MDA-MB-468 cells were plated on a glass coverslip and treated with 50 μM GGTI-2417 or DMSO as a control for 48 h. Medium was aspirated and the cells were washed twice with ice-cold sterile DPBS solution (Invitrogen, Carlsbad, Calif.), fixed with 4% paraformaldehyde at room temperature for 15 min, and then treated with 1% Nonidet P-40 for 30 min at room temperature. After blocking with 5% bovine serum albumin for 30 min at room temperature, cells were incubated with anti-p27 antibody (1:500) at room temperature for 1 h. After washing three times with DPBS solution, cells were incubated with FITC-conjugated secondary antibody (1:1000) for 1 h at room temperature. Cells were then washed three times with sterile DPBS solution, mounted using Vectashield mounting reagent (Vector Laboratories, Inc., Burlingame, Calif.) containing 4′,6′-diamidino-2-phenylindole (DAPI) for nuclear visualization, and analyzed using a Zeiss Axiovert Z-1 Imager microscope (Carl Zeiss, Oberkochen, Germany) at […]. Images were analyzed using ImagePro Plus 6.2 (Media Cybernetics, Bethesda, Md.).

## COC(=O)[C@H](CC(C)C)NC(=O)N1CCN(Cc2nc[nH]c2C)C(=O)[C@@H]1Cc1ccccc1 [GGTI-2417]
[1]
  inhibition of proliferation: 89.0±3.1%
[1]; vehicle 22.4±7.2%
  cell death: 53.4±7.0%
[2]; 50 μM, MDA-MB-468
  increase of p27 Tyr phosphorylation: 3.5 fold
  increase of p27 amounts (immunoprecipitated p27): 11.9 fold
[2]; MDA-MB-468, 48 h
  HDJ-2 farnesylation / processing: not the farnesylation of HDJ-2
  Rap1 geranylgeranylation: inhibited the geranylgeranylation of Rap1
  p27 protein levels: increased p27 protein levels in a time-dependent manner
[3]
  selectivity for inhibition of cellular GGTase I compared to FTase: > 125 fold
[3]; 48 h, read-out: IC50, inhibition of Rap1 geranylgeranylation
  IC50: 0.4 ± 0.1 µM
[4]
  cytosolic p27 levels: not affected significantly
  increase of nuclear levels of p27: 6 fold
